{"source": "patent US20160368898A1", "about": "“2-PYRIDYLOXY-4-METHYL OREXIN RECEPTOR ANTAGONISTS” (MERCK SHARP & DOHME CORP., priority 2013, published 2016)", "key": {"[1]": {"target": "T1, human orexin-2 receptor (hOX2R) (Homo sapiens, UniProt O43614)", "T1 construct": "expressed in transfected cells; host or cells: CHO cells (grown under G418)", "T1 sequence (O43614 1-444)": "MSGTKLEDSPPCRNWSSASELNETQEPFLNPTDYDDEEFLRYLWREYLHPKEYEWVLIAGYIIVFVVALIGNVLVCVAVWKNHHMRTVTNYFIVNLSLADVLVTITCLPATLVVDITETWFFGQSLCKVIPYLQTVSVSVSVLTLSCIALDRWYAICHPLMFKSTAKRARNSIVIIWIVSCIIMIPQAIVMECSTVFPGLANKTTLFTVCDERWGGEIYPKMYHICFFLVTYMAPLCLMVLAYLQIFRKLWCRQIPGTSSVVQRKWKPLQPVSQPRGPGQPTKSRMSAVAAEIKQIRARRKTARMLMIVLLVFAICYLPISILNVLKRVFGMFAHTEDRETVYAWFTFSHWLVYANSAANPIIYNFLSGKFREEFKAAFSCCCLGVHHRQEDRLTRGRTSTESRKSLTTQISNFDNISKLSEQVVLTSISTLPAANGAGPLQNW", "test": "FLIPR Ca2+ Flux Assay, CHO cells expressing the human orexin-2 receptor", "type": "cell-based", "conditions": "agonist 70 pM Ala-6,12 human orexin-A", "method": "The utility of the compounds in accordance with the present invention as orexin receptor OX1R and/or OX2R antagonists may be readily determined without undue experimentation by methodology well known in the art, including the “FLIPR Ca^2+ Flux Assay” (Okumura et al., Biochem. Biophys. Res. Comm. 280:976-981, 2001). In a typical experiment the OX1 and OX2 receptor antagonistic activity of the compounds of the present invention was determined in accordance with the following experimental method. For intracellular calcium measurements, Chinese hamster ovary (CHO) cells expressing the rat orexin-1 receptor or the human orexin-2 receptor, are grown in Iscove's modified DMEM containing 2 mM L-glutamine, […], 1% hypoxanthine-thymidine supplement, 100 U/ml penicillin, 100 μg/ml streptomycin and 10% heat-inactivated fetal calf serum (FCS). The cells are seeded at 20,000 cells/well into Becton-Dickinson black 384-well clear bottom sterile plates coated with poly-D-lysine. All reagents were from GIBCO-Invitrogen Corp. The seeded plates are incubated overnight at 37° C. and 5% CO2. Ala-6,12 human orexin-A as the agonist is prepared as a 1 mM stock solution in 1% bovine serum albumin (BSA) and diluted in assay buffer (HBSS containing 20 mM HEPES, 0.1% BSA and 2.5 mM probenecid, pH7.4) for use in the assay at a final concentration of 70 pM. Test compounds are prepared as 10 mM stock solution in DMSO, then diluted in 384-well plates, first in DMSO, then assay buffer. On the day of the assay, cells are washed 3 times with 100 μl assay buffer and then incubated for 60 min (37° C., 5% CO2) in 60 μl assay buffer containing 1 μM Fluo-4AM ester, 0.02% pluronic acid, and 1% BSA. The dye loading solution is then aspirated and cells are washed 3 times with 100 μl assay buffer. 30 μl of that same buffer is left in each well. Within the Fluorescent Imaging Plate Reader (FLIPR, Molecular Devices), test compounds are added to the plate in a volume of 25 μl, incubated for 5 min and finally 25 μl of agonist is added. Fluorescence is measured for each well at 1 second intervals for 5 minutes and the height of each fluorescence peak is compared to the height of the fluorescence peak induced by 70 pM Ala-6,12 orexin-A with buffer in place of antagonist. For each antagonist, IC50 value (the concentration of compound needed to inhibit 50% of the agonist response) is determined. Alternatively, compound potency can be assessed by a radioligand binding assay (described in Bergman et. al. Bioorg. Med. Chem. Lett. 2008, 18, 1425-1430) in which the inhibition constant (Ki) is determined in membranes prepared from CHO cells expressing either the OX1 or OX2 receptor. The intrinsic orexin receptor antagonist activity of a compound which may be used in the present invention may be determined by these assays."}, "hOX1R": {"target": "T2, hOX1R (Homo sapiens, UniProt O43613)", "T2 construct": "expressed in transfected cells; host or cells: CHO cells (grown under G418)", "T2 sequence (O43613 1-425)": "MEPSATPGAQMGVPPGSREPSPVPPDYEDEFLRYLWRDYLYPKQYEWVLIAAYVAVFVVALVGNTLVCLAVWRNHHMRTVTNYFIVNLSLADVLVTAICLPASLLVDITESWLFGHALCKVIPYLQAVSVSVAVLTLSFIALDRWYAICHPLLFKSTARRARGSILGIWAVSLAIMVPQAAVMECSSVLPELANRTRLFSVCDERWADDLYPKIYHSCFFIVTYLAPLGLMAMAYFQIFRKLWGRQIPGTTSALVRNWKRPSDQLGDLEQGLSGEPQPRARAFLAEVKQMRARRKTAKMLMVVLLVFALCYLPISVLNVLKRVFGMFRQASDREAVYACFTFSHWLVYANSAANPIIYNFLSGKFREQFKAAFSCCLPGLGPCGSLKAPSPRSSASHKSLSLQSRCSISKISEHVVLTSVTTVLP", "test": "FLIPR Ca2+ Flux Assay, CHO cells expressing the orexin-1 receptor", "type": "cell-based", "conditions": "agonist 70 pM Ala-6,12 human orexin-A"}}, "data": [{"smiles": "Cc1ccnc(O[C@@H]2CC[C@@H](C)N(C(=O)c3sccc3-c3ncccn3)C2)c1", "note": "[Example 22, 2-[2-({(2R,5R)-2-methyl-5-[(4-methylpyridin-2-yl)oxy]piperidin-1-yl}carbonyl)thiophen-3-yl]pyrimidine]", "values": [{"measurement": "IC50", "setting": "[1]", "result": 17, "unit": "nM"}, {"measurement": "IC50", "setting": "hOX1R", "result": 791, "unit": "nM"}]}]}
